# Assay results taken from a melting point compilation (Tetko et al.; mined from patent text by program, amines drawn as free bases though some values may be those of a salt).
row,melting point [°C],Structure (SMILES)
1,185 to 190,C=C1CC2C3CCC4=CC(=O)C=CC4(C)C3=CCC2(C)C1(O)C(C)=O (stereo not drawn)
2,181 to 183,Cc1ccccc1P1(=O)c2ccccc2CN1c1ccccc1 (stereo not drawn)
3,116 to 120,O=C1c2ccccc2COc2ccc(CCN3CCC(n4c(=O)[nH]c5ccccc54)CC3)cc21
4,83 to 84,CC(C)(C)C(=O)C=Cc1ccc(Cl)cc1
5,174 to 176,[N-]=[N+]=NC1CC(n2ccc(N)nc2=O)OC1CO (stereo not drawn)
6,53 to 55,CCCC(=O)C1=C(O)CC(C2(C)CC(C(C)CC)=NO2)CC1=O (stereo not drawn)
7,226,O=C(O)C1Oc2ccc(Cl)cc2C(c2ccccc2)(c2ccccc2)O1 (stereo not drawn)
8,69,Cc1c(F)cccc1NN
9,214 to 216,CN1CCC=C(c2cc3ccccc3c(=O)[nH]2)C1
10,252 to 255,Cc1ccc(-c2nc(O)c(-c3ccccc3)s2)cc1
11,93 to 96,CCOc1ccc(N)nc1C
12,153 to 160,CC(=O)NC1(C#N)CC(C)(C)NC(C)(C)C1
13,140 to 143,CC(SC(=O)c1ccccc1)C(=O)N(CC(=O)O)C1CC1 (stereo not drawn)
14,86 to 88,CCNC(SC)=C(C#N)C(=O)OC
15,156 to 158,CCOc1cccc(-c2cnn3c(-c4cccc(NC(=O)CC(C)C)c4)ccnc23)c1
16,138 to 139,O=C1c2ccccc2C(=O)N1Cc1ccc(I)cc1
17,118 to 119,O=C1N(CO)CCN1CCN1CCC(c2cn(-c3ccc(F)cc3)c3ccc(Cl)cc23)CC1
18,145 to 150,COC(=O)CN1CCCN(c2ccc(-c3ccc(C#N)cc3)cc2)C1=O
19,79 to 81,CCOC(=O)CN1C(=O)C(N2C(=O)c3ccccc3C2=O)CCCc2ccccc21 (stereo not drawn)
20,148 to 151,CCCc1nc(C(C)(C)O)c(C(=O)OCC)n1Cc1ccc(-c2ccccc2C(N)=O)cc1
21,77.5 to 78.5,COc1ccccc1Cc1ccc(N)c(C#N)c1
22,170 to 171,CCc1cccc2c3c([nH]c12)[C@@]1(CC(=O)O)CC[C@H]1CC3 (relative stereo)
23,214 to 216,CSc1ccccc1N1CCN(Cc2nc3ccccc3[nH]2)CC1

row,melting point [°C],Structure (SMILES)
1,> 300,CCc1nc(N)nc(N)c1N1CCN(c2ccc(C(=O)O)cc2)CC1
2,173 to 174,CCc1nc(-c2cccc(C(=O)OC)c2)c(-c2ccnc(N)c2)s1
3,80 to 81.6,CCCCN(C)C(=O)c1cccc(-c2nc(=O)c3ccccc3s2)n1
4,76 to 78,COc1ccc(C(CCC(=O)c2ccccc2)C(=O)c2ccc(OCc3ccccc3)cc2)cc1 (stereo not drawn)
5,262 to 265,Cc1nnc2n1-c1ccc(Cl)cc1C(c1ccccc1)N2 (stereo not drawn)
6,191 to 192,COc1nc(N)c2ncn(C3OC(CO)C(O)C3O)c2n1 (stereo not drawn)
7,197 to 198,C=CCSc1ccc2[nH]c(NC(=O)OC)nc2c1
8,175 to 178,CCOC(=O)c1cn2c3c(c(-c4cc(C)nc(C)c4)c(F)c(SCc4ccccc4)c3c1=O)OC[C@@H]2C
9,196 to 199,CCCCC1OC(=O)c2cc(NC(N)=O)ccc21 (stereo not drawn)
10,171,NS(=O)(=O)c1ccc(-c2cscc2-c2ccccc2)cc1F
11,> 200,N#Cc1ccc(-c2cnc3c(c2)N(Cc2ccccc2)C(=O)CN3)cn1
12,153 to 154,CN(c1cccc2cc(C3=NCC(CCO)S3)[nH]c12)S(=O)(=O)c1ccccc1C(F)(F)F (stereo not drawn)
13,237 to 238,O=C1NC(=O)C(=Cc2ccc(SCc3ccccc3)cc2)S1
14,237 to 238,CC(=O)Nc1nc(-c2ccc(S(=O)(=O)COC(C)=O)cc2)cs1
15,120 to 122,COc1ccc(CN(Cc2ccc(OC)cc2)c2nc(-c3ccccc3)c(-c3ccc(=O)n(C(C)C)n3)nc2C(N)=O)cc1
16,115 to 118,Cc1cccc(-c2n[nH]cc2-c2ccc(F)c(-c3ccc(S(N)(=O)=O)cc3)c2)n1
17,72 to 74,CCn1nc(-c2ccccc2F)nc1-c1ccccc1C(F)(F)F
18,96 to 98,COC(=O)Cc1ccc(C(=O)c2ccccc2)n1C
19,239 to 242,CCCOc1ccccc1-c1cc(C)c(C(N)=O)c(=O)[nH]1
20,273 to 276,COc1ccc2ccc3nc(C(N)=O)cn3c2c1
21,182 to 183,COc1ccc(-c2ccc(C(=O)Nc3ccc4cc(CN5CCCC5)cnc4c3F)c(F)c2)cc1
22,246 to 252,CCNC1=NS(=O)(=O)c2cc(F)c(F)cc2N1
23,198 to 200,COc1cc(C=CC(=O)Nc2cnc3c(C)cc(C)cc3c2-c2ccccc2Cl)cc(OC)c1OC

row,melting point [°C],Structure (SMILES)
1,173 to 175,O=C(NS(=O)(=O)c1ccccc1)c1cccc2nnsc12
2,94 to 100,O=C(CCCN1CCN(c2cc3ccccc3cn2)CC1)c1cccs1
3,109 to 111,CCOC(=O)CC[C@H](NC(=O)CCc1cc(Cl)ccc1C(=O)CCCNC(C)=O)C(=O)OCC
4,148,O=C(N[C@@H]1CCN(CCNc2ncccn2)C[C@H]1O)c1cccc(C(F)(F)F)c1 (relative stereo)
5,111 to 112,C=CC=CCC1CC(NC(=O)C(F)(F)F)C(O)C(C)O1 (stereo not drawn)
6,216 to 217,CC1SC(=O)N(C(=O)C2CC3CCC2(C)C3(C)C)N=C1c1ccc2c(c1)CCCN2C(=O)c1ccc2c(c1)OCO2 (stereo not drawn)
7,190,O=C(O)C1CSC(c2ccccc2-c2ccccc2)N1 (mixture of isomers)
8,284 to 286,O=C(O)Cc1sc(NC(=O)c2cc(Br)ccc2O)nc1-c1ccccc1
9,162 to 164,CCCCCCCNC(=O)Nc1ccccc1C=Cc1cc(C(C)(C)C)c(O)c(C(C)(C)C)c1
10,258 to 259,CC(C)(C)C(NC(=O)c1ccc(Cl)cc1)Nc1c(Nc2ccc(Cl)nc2)c(=O)c1=O (stereo not drawn)
11,> 225,O=C1N(Cc2ccccn2)c2cccc(Br)c2C1(O)c1cc2c(cc1O)OCC2 (stereo not drawn)
12,208 to 210,CCCCCCCCc1ccc(N(c2ccc(CCCCCCCC)cc2)C2(c3ccc(N(C)C)cc3)OC(=O)c3cc(N(C)C)ccc32)cc1 (stereo not drawn)
13,84 to 85,OC(CCCc1ccc(Cl)cc1)Cn1ccnc1 (stereo not drawn)
14,111 to 114,Cc1cccc(C)c1N(CC(C)OS(C)(=O)=O)S(C)(=O)=O (stereo not drawn)
15,> 255,O=C(NCc1ccccc1)c1cc2c(=O)n(Cc3ccccc3)c(=O)[nH]c2s1
16,58 to 59,CCN(CC)CCN(CCCCCSc1nc(-c2ccccc2)c(-c2ccccc2)[nH]1)C(=O)NC(C)C
17,178 to 179,CCC(Oc1ccc(C(C)(C)CC)cc1C(C)(C)CC)C(=O)Nc1ccc(Cl)c(NC(=O)C(C(=O)C(C)(C)C)N2C(=O)NC(=C(C)C)C2=O)c1 (stereo not drawn)
18,183 to 186,CC(C)(C)[Si](C)(C)OC1CN(c2ccc(N3C[C@H](CO)OC3=O)cc2F)C1
19,54 to 56,CCCCCCCCCCc1ccnc(C(=O)NCCCCC(=O)O)c1
20,290 to 291,Cc1nc(Nc2ccccc2)sc1-c1ccnc(Nc2ccc(N3CCOCC3)cc2)n1
21,130 to 131,Cc1cccc(-c2nc3cccnn3c2-c2ccnc(NC3CCCC3)c2)c1
22,165 to 168,COc1ccc2c(c1)S(=O)(=O)C(C(=O)Nc1cccc(C(F)(F)F)c1)C(=O)N2C (stereo not drawn)
23,178,Cc1cnc(CS(=O)c2cc3ccccc3[nH]2)cc1N1CCCCC1 (stereo not drawn)

row,melting point [°C],Structure (SMILES)
1,65 to 85,COc1cc2c(cc1Nc1ncc(Cl)c(Nc3ccccc3OC)n1)CCN(CC(=O)N(C)C)CC2
2,60 to 70,CCCCCCCCCCCCCCCCCCOC(=O)c1ccc(N)cc1
3,81,CC(C)(C)[Si](C)(C)OCCOc1cccnc1Br
4,73 to 75,CCOC(=O)CCN1CCN(C2=Nc3ccccc3Oc3ccc(Cl)cc32)CC1
5,64 to 66,CCCOc1c(OC)cc(C=O)cc1SC
6,150 to 151,Cc1cccc(-c2nc3cccnn3c2-c2ccnc(NCc3ccco3)c2)c1
7,176 to 182,Nc1sc2c(c1C(=O)c1ccc3c(c1)Cc1ccccc1-3)CCC2
8,> 255,O=C(O)c1ccc(NC(=O)C(F)(F)F)nc1
9,120,COc1ccc(C(=O)CN2CCN(C3CCCCO3)C2=O)cc1OC (stereo not drawn)
10,76 to 79,CCCc1c(OCCCOc2ccc3c(c2CCC)OC(CCC(=O)O)(C(=O)O)CC3=O)ccc(C(C)=O)c1O (stereo not drawn)
11,116 to 117,CC(C(=O)O)c1ccc(-n2cc(Br)cn2)c(Cl)c1 (stereo not drawn)
12,196 to 197,CCOCc1nc2c(N)nc3cc(-c4cccnc4)ccc3c2n1Cc1ccc(CNC(=O)OC(C)(C)C)cc1
13,124 to 126,CCCc1nc2ccc(C#N)cc2n1Cc1ccccc1Cl
14,139 to 140,Cc1nnc(-c2ccc3occ(-c4cccnc4)c3c2)o1
15,102 to 104,COc1ccc2c(-c3ccc(Br)cc3)csc2c1
16,88.4 to 89.3,CCCCCCCCCCC1(CCCCCCCCCC)c2cc(C=Cc3ccncc3)ccc2-c2ccc(N(c3ccccc3)c3ccccc3)cc21
17,126 to 129,CCCc1c2c(c(F)c3c(=O)cc(C(=O)OCC)oc13)CCCC2
18,161 to 162,Oc1c2c(nn1-c1cc(C(F)(F)F)ccn1)CCc1ccccc1-2
19,92 to 93.5,O=C1CCC(c2ccc3c(c2)OCO3)CC1
20,240 to 242,COc1cc(OC)c2c(=O)[nH]c(-c3ccc(OCCO)c(-c4ccccc4)n3)nc2c1
21,204 to 207,COc1cc2ncnc(N3CCCCCc4ccccc43)c2cc1OC
22,130 to 132,CCCCOc1nc(-c2ccc(=O)n(C(C)C)n2)c(-c2ccccc2)nc1N

row,Structure (SMILES),melting point [°C]
1,N#CC1CN1C(=O)NSC(F)(F)F (stereo not drawn),83 to 85
2,CC1(C)NC(=O)N(c2ccc(F)c(C(F)(F)F)c2)C1=O,111 to 114
3,O=C(O)c1cn(C2COC2)c2c(F)c(N3CCNCC3)cc(F)c2c1=O,> 300
4,O=C(O)c1cc(Cc2c[nH]cn2)ccc1O,254 to 258
5,Cc1ccc2c3c(ccc2n1)OCC(CN1C2CCC1CC(O)(c1cccc(C(F)(F)F)c1)C2)O3 (stereo not drawn),146 to 150
6,CCOC(=O)c1nnn(O)n1,75 to 78
7,CCSC[C@@H]1[C@@H](c2ccc(Cl)c(Cl)c2)C[C@@H]2CC[C@H]1N2C,69 to 71
